The source of these data is US20250188078A1, “SMALL MOLECULE INHIBITORS OF THE CRL4 UBIQUITIN LIGASE” (Cornell University, priority 2022, published 2025).

Each structure is given as a SMILES string. Values joined by “and” are separate entries in the source; they are usually repeats but may differ in a detail not shown here. Equal entries are not always repeated. Where two headings read alike, the source gives them in different places.

The nature of series [1]: Dynamic light scattering (DLS) solubility assay. The series is classed as physicochemical. To be noted: normalized intensity ratio of 25 μM compound vs DMSO, in PBS. The gist of the method: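 Compounds diluted from DMSO into PBS at final concentrations of 200 μM to 0.78 μM, in triplicate, and aggregation measured by light scattering intensity. A ratio above 2 scores insoluble (−), below 2 soluble (+), and around 2 (+/−).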

For series [2], the system named is CUL4A^high MDA-MB-468 breast cancer cells. The series is described as follows: Cell killing in CUL4-high MDA-MB-468 cells (CellTiter Glo). The class given is cell-based. To be noted: Homo sapiens, 8 days treatment. The gist of the method: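 Cells seeded, treated after 24 h with DMSO or compound (0 to 20 μM). Medium and compound replaced every 48 h over 8 days. Viability measured by CellTiter-Glo luminescence; EC50 (50% killing) from log(inhibitor) vs response nonlinear fit.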
For orientation: Cellular ATP, detected with luciferase, serves as a proxy for viable cell number.

The target of series [3] is DDB1-BPB (Homo sapiens (Human), UniProt Q16531). Put plainly: Surface Plasmon Resonance (SPR) binding to DDB1-BPB. The conditions noted are these: DDB1-BPB immobilized. The text has this:
Kd represents dissociation constant, which measures the affinity of small molecule binding to the scaffold DDB1-BPB by Surface Plasmon Resonance (SPR) (https://www.bio-rad.com/webroot/web/pdf/lsr/literature/Bulletin_6414.pdf, hereby incorporated by reference in its entirety) (see Table 1, column 8). To assess the interaction between DDB1-BPB and compounds, a multi-parametric SPR instrument (BioRad ProteON XPR360) was used. DDB1-BPB was immobilized onto the GLH sensor surface in a variety of ways as follows: flow channels were activated in parallel with 1/20 diluted EDC/SNHS. DDB1-BPB was diluted to 0.1 mg/mL in sodium acetate pH 4.5 and directly coupled onto channel for 4 min. Excess reactive esters were blocked with a 5-min injection of 1 M ethanolamine. Mean immobilization levels were 17,000 RU with <2% variation along a strip. One channel was left unmodified to provide an additional reference surface. Next, the binding kinetics of compounds on surfaces was determined in a single injection using a “one-shot” kinetic mode. Typically, compound was prepared as a twofold serial dilution (0, 3.125, 6.25, 12.5, 25, 50 μM) and injected for 60 s at […]. Dissociation was monitored for 800 s. Surfaces were regenerated with multiple 30-s pulses of 60 mM phosphoric acid so that the experiment could be reproduced. All resulting sensor grams were collected and analyzed using the ProteOn manager software.

The nature of series [4]: Pharmacokinetic study: compound concentration in MDA-MB-468 xenograft tumor tissue. The class given is in vivo, mouse. To be noted: for Tissue concentration: individual tumors. How it is done:
Female athymic Nu/J nude mice, 6 weeks old were purchased from the Jackson Laboratory. Mice were housed in laminar air-flow cabinet under specific pathogen-free conditions. 5×10^6 MDA-MB-468 cells in 100 μl diluted BD Matrigel™ Basement Membrane Matrix (BD Bioscience, Matrix:PBS is 1:1) were injected subcutaneously in each flank of mouse. We detected tumors once every four days by fine calipers measurement. When tumor size reached 100 mm^3, mice were randomly grouped and treated with DMSO or 50 mg/kg PA99 compound. The stock solution of compound was 10 mg/ml, which formulated with 10% DMSO, 10% Tween-80 and 80% H2O. PA99 was injected into mouse by intraperitoneal injection ([…]) three times per week. Mouse weights and tumor volumes were measured twice/week. For the pharmacokinetic study, samples were collected after compound injection (30 mins, 1 h, 3 h, 6 h). Four tumor samples were collected at each time point for mass spectrometry analysis to determine the compound concentrations in tumor tissues.

Series [5] concerns MCF7 breast cancer cells. The series is described as follows: Cell killing in MCF7 cells (CellTiter Glo). The series is classed as cell-based. The conditions noted are these: Homo sapiens, MCF7, 192 h; Table 3, 0 to 20 μM compound, 8 days treatment. On the procedure:
CUL4A^high MDA-MB-468, CUL4^low (T47D), and MCF7 breast cancer cells were seeded in 96 well plates separately. Cells were treated with DMSO, or from 0 to 20 μM compound respectively. Replace with fresh medium and compounds every 48 hours. After 8 days treatment, cell viability was examined by CellTiter Glo kit (Promega #7570). First, transfer the appropriate volume (10 ml for Cat. #G7570) of CellTiter-Glo® Buffer into the amber bottle containing CellTiter-Glo® Substrate to reconstitute the lyophilized enzyme/substrate mixture. This forms the CellTiter-Glo® Reagent. Second, add CellTiter-Glo® Reagent in an equal volume (100 μl per well for 96-well plates) to all wells. Mix contents for 2 minutes on an orbital shaker to induce cell lysis. Incubate at room temperature for 15 minutes to stabilize luminescent signal. Then record luminescence. EC50 concentration was calculated by Prism 8 XY analysis nonlinear regression (curve fit-Log(inhibitor) vs response).

The test system of series [6] is CUL4A^high MDA-MB-468 and CUL4^low (T47D) cells. Put plainly: Selective killing of CUL4A^high tumors (MDA-MB-468 vs T47D, Cell Titer Glo). The class given is cell-based. The conditions noted are these: FIG. 10, 8 days treatment. How it is done: CUL4A^high MDA-MB-468 breast cancer cells and CUL4^low (T47D) cells were seeded in 96 well plates. After 24 hours, cells were treated with DMSO or compound PA99. After 8 days treatment, cell viability was examined by using CellTiter Glo kit (Promega #7570) following the manufacturer's guidelines. EC50 concentration was calculated by Prism 8 XY analysis nonlinear regression (curve fit-Log(inhibitor) vs response). Lower EC50 indicates high cell killing potential in CUL4^high MDA-MB-468 cells.

The mark [7] stands for this setting: 192 h, MDA-MB-468 cells, read-out: EC50 CUL4-High Cells (cell killing).

Sequence of DDB1-BPB (Q16531 403-706): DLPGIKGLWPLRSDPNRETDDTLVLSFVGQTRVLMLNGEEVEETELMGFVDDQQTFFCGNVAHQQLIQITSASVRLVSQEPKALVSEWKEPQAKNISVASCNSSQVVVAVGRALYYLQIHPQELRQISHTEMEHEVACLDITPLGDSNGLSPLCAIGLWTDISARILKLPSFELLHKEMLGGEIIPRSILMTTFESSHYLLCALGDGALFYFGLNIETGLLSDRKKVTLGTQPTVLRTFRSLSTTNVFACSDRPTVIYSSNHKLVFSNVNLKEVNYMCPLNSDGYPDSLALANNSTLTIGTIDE

In the case of `CN(c1ccc(-c2nc(C(=O)O)cc3c2[nH]c2ccc(F)cc23)cc1)S(=O)(=O)c1ccccc1` [PA93], in series [1], the “Solubility (DLS Assay)” value is listed as “-(insoluble)”. In addition, the EC50 – broadly, the concentration at which the effect is half-maximal – in series [2] (setting [7]) worked out at 11100 nM.

Turning to `CN(c1ccc(-c2nc(C(=O)O)cc3c2[nH]c2cccc(F)c23)cc1)S(=O)(=O)c1ccccc1` [PA99, 5-fluoro-1-(4-(N-methylphenylsulfonamido)phenyl)-9H-pyrido[3,4-b]indole-3-carboxylic acid], the EC50 in series [2] (setting [7]) amounted to 1180 nM; in series [2] (MDA-MB-468, 192 h, Table 3, 0 to 20 μM compound, read-out: EC50 OF cell killing, MDA-MB-468) it was 1180 nM; in series [5], 19500 nM. In series [3], binding was put at a Kd of 2130 nM. In addition, the Tissue concentration is 3910 ng/mL and 8.2 μM and 666 ng/mL and 1.4 μM (2×) and 670 ng/mL and 1010 ng/mL and 2.1 μM in series [4] (30 min after 50 mg/kg intraperitoneal injection); 5780 ng/mL and 12.2 μM and 1790 ng/mL and 3.8 μM and 1230 ng/mL and 2.6 μM and 870 ng/mL and 1.8 μM in series [4] (1 hr after 50 mg/kg intraperitoneal injection); 1400 ng/mL and 2.9 μM and 1340 ng/mL and 2.8 μM and 392 ng/mL and 0.8 μM and 290 ng/mL and 0.6 μM in series [4] (3 hr after 50 mg/kg intraperitoneal injection); 419 ng/mL and 0.88 μM and 342 ng/mL and 0.72 μM and 1440 ng/mL and 3.0 μM and 913 ng/mL and 1.9 μM in series [4] (6 hr after 50 mg/kg intraperitoneal injection). In series [4] (female, athymic Nu/J nude, mouse, MDA-MB-468 xenograft tumor, intraperitoneal, 50 mg/kg, 30 min, average of four tumors), the concentration at 30 min was 1560 ng/mL and 3.3 µM. Also, the concentration at 1 h in series [4] (female, athymic Nu/J nude, mouse, MDA-MB-468 xenograft tumor, intraperitoneal, 50 mg/kg, 1 hr, average of four tumors) is 2420 ng/mL and 5.1 µM. The concentration at 3 h in series [4] (female, athymic Nu/J nude, mouse, MDA-MB-468 xenograft tumor, intraperitoneal, 50 mg/kg, 3 hr, average of four tumors) was 856 ng/mL and 1.8 µM. Besides, the concentration at 6 h in series [4] (female, athymic Nu/J nude, mouse, MDA-MB-468 xenograft tumor, intraperitoneal, 50 mg/kg, 6 hr, average of four tumors) was 779 ng/mL and 1.6 µM. Moreover, the “Killing of CUL4A^high tumors” value in series [6] is reported as “selective killing”.
